“And” between values parts separate entries of the source, which are not always exact repeats. Identical values can stand only once.
Test system: 217524-143-R1-J4-PDC spheroids with HUVEC/MSC, viability
Assay: Anticancer human tumor 217524-143-R1-J4-PDC patient-derived pancreatic carcinoma cell line growth inhibition [CLK]
Details: for viability, T/C: stronger effect = lower value; for IC50: curve of compound
From the text: A high-throughput screen of multi-cell type tumor spheroids was designed to identify active combinations of […] and targeted small molecules. Complex spheroids include a stromal component modeled by human endothelial cells (HUVEC) and fibroblasts modeled by human mesenchymal stem cells (MSCs). The concentration ranges selected for each drug and investigational agent were based upon clinically achievable concentrations if the clinical Cmax of the agent was known.
Compounds. The drugs and investigational agents: cirtuvivint (SM08502; NSC835563), CC-671 (NSC850746), vemurafenib (NSC761431), tapotoclax (NSC804041), sotorasib (NSC818433), adagrasib (NSC831453), MRTX-1133 (NSC836407), BAY2416964 (NSC825713), copanlisib (NSC816437), inavolisib (NSC800729), abemaciclib (NSC768073), osimertinib (NSC779217), entinostat (NSC756642), eltanexor (KPT-8602, NSC794443), venetoclax (NSC766270), ceralasertib (NSC777638), bortezomib (NSC756655), olaparib (NSC753686), talazoparib (NSC767125), alisertib (NSC759677), peposertib (NSC802822), gemcitabine (NSC613327), 5-fluorouracil (NSC19893), SN-38 (NSC673596), oxaliplatin (NSC266046), paclitaxel (NSC125973), and doxorubicin (NSC123127), were obtained from the National Cancer Institute (NCI) Developmental Therapeutics Program Chemical Repository. The FDA-approved anticancer drug set is available from the Developmental Therapeutics Program at https://dtp.cancer.gov/organization/dscb/obtaining/available plates.htm. […] The stock solutions were prepared in dimethyl sulfoxide (DMSO, Sigma-Aldrich, St. Louis, MO, cat. D2650), except for the platinum complexes which were prepared in saline (Quality Biological, Gaithersburg, MD, cat. 114-055-101), at 800-fold the tested concentration and stored at -70 degrees C prior to their use. All drugs and investigational agents were tested over a range starting from a high concentration at or near the clinical Cmax and decreasing in half-log increments. If the clinical Cmax for an agent had not been determined, the highest concentration tested was 10 microM.
Cell Culture. All cells were maintained in an incubator at 37 degrees C and 5% CO2 with 95% humidity. The PDC lines were cultured according to standard operating procedures established by the NCI PDMR. Briefly, all PDCs were thawed and cultured in Matrigel-coated flasks prepared with a working solution of 1X Ham's F-12 nutrient mix, without supplementation (Invitrogen, Waltham, MA, cat. 11765054), 100 U/mL penicillin-streptomycin (Invitrogen, cat. 15140122), and 2.5% Matrigel (Corning Inc., Corning, NY, cat. 354248) for the first three passages. The 947758-054-R-J2-PDC line was cultured in 6B/Colon 1A media, which includes advanced DMEM/F-12 (Thermo Fisher Scientific, cat. 12634028), 10 mM HEPES (Thermo Fisher Scientific, cat. 15630080), 1X GlutaMAX supplement (Thermo Fisher Scientific, cat. 35050061), 0.1 mg/mL primocin (InvivoGen, cat. ant-pm-2), 10% defined fetal bovine serum, heat inactivated (HyClone Laboratories Inc., cat. SH30070.03HI), 1.25 mM N-Acetyl-L-cysteine (Sigma-Aldrich, cat. A9165), 10 mM nicotinamide (Sigma-Aldrich, cat. N0636), 1X B-27 supplement (Thermo Fisher Scientific, cat. 17504044), 1X N-2 supplement (Thermo Fisher Scientific, cat. 17502048), and 10 microM Y-27632 dihydrochloride (Tocris Bioscience, cat. 1254). The 876862-298-R-J1-PDC was cultured in 6E media, which includes all 6B/Colon 1A media components plus 50% L-WRN conditioned media (ATCC, cat. CRL-3276), 50 ng/mL recombinant human EGF recombinant protein (hEGF; Thermo Fisher Scientific, cat. PHG0311), 10 ng/mL recombinant human fibroblast growth factor 10 (hGFG-10; PeproTech, cat. 100-26), 1 ng/mL recombinant human fibroblast growth factor 2 (hFGF-2; PeproTech, cat. 100-18B), and 1 µM prostaglandin E2 (PGE2; Tocris, cat. 2296). The 227483-062-R1-J1-PDC line was cultured in Panc media, containing all 6E components except hFGF-2, with the addition of 500 nM SB-431542 (Selleckchem, cat. S1067) and 10 nM gastrin (Tocris, cat. 3006). […]
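Note: spheroids exposed to agents for seven days before reading.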
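Throughout, for viability, T/C: 100% = DMSO vehicle control viability.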

C#Cc1c(F)ccc2cc(O)cc(-c3ncc4c(N5CC6CCC(C5)N6)nc(OCC56CCCN5CC(F)C6)nc4c3F)c12 (configuration not stated)
viability, T/C (compound 0.0316 µM): 101% and 98% | viability, T/C (compound 0.1 µM): 81.7% and 90.2% | viability, T/C (compound 0.316 µM): 88.5% and 86.4% | viability, T/C (compound 1 µM): 85% and 85.9% | viability, T/C (compound 3.16 µM): 86.7% and 68% | viability, T/C (compound 10 µM): 59% and 77.1% | IC50: > 10000 nM

C=C(F)C(=O)N1CCN(c2nc(OCC3CCCN3C)nc3c2CCN(c2cccc4cccc(Cl)c24)C3)CC1CC#N (configuration not stated)
viability, T/C (compound 0.0316 µM): 91.8% and 102% | viability, T/C (compound 0.1 µM): 113% and 96.7% | viability, T/C (compound 0.316 µM): 109% and 106% | viability, T/C (compound 1 µM): 73.5% and 108% | viability, T/C (compound 3.16 µM): 85.6% and 87.4% | viability, T/C (compound 10 µM): 3.02% and 4.54% | IC50: 4870 nM and 5320 nM

C=CC(=O)N1CCN(c2nc(=O)n(-c3c(C)ccnc3C(C)C)c3nc(-c4c(O)cccc4F)c(F)cc23)C(C)C1 (configuration not stated)
viability, T/C (compound 0.0316 µM): 98.7% and 109% | viability, T/C (compound 0.1 µM): 72.6% and 98% | viability, T/C (compound 0.316 µM): 78.3% and 113% | viability, T/C (compound 1 µM): 96.4% and 111% | viability, T/C (compound 3.16 µM): 126% and 111% | viability, T/C (compound 10 µM): 103% | IC50: > 10000 nM

C=CC(=O)Nc1cc(Nc2nccc(-c3cn(C)c4ccccc34)n2)c(OC)cc1N(C)CCN(C)C
viability, T/C (compound 0.000949 µM): 106% and 100% | viability, T/C (compound 0.003 µM): 83.4% and 96.4% | viability, T/C (compound 0.00949 µM): 100% and 92.1% | viability, T/C (compound 0.03 µM): 90.3% and 81.1% | viability, T/C (compound 0.0949 µM): 57.1% and 43.5% | viability, T/C (compound 0.3 µM): 35.3% and 33.1% | IC50: 137 nM and 78.7 nM

CC(=O)O[C@H]1C(=O)[C@@]2(C)[C@H]([C@H](OC(=O)c3ccccc3)[C@]3(O)C[C@H](OC(=O)[C@H](O)[C@@H](NC(=O)c4ccccc4)c4ccccc4)C(C)=C1C3(C)C)[C@]1(OC(C)=O)CO[C@@H]1C[C@@H]2O
viability, T/C (compound 0.0316 µM): 12.7% and 12% | viability, T/C (compound 0.1 µM): 12.4% and 12.9% | viability, T/C (compound 0.316 µM): 10.1% and 12.3% | viability, T/C (compound 1 µM): 9.86% and 10.8% | viability, T/C (compound 3.16 µM): 13.6% and 14.1% | viability, T/C (compound 10 µM): 16% and 16.4% | IC50: < 31.6 nM

CC(C)CC(NC(=O)C(Cc1ccccc1)NC(=O)c1cnccn1)B(O)O (configuration not stated)
viability, T/C (compound 0.000949 µM): 107% and 103% | viability, T/C (compound 0.003 µM): 68% and 61.1% | viability, T/C (compound 0.00949 µM): 27% and 19.8% | viability, T/C (compound 0.03 µM): 10.3% and 6.71% | viability, T/C (compound 0.0949 µM): 6.69% and 3.3% | viability, T/C (compound 0.3 µM): 2.39% and 1.64% | IC50: 4.99 nM and 4.09 nM

CC(CO)NC(=O)c1cc(-c2ccc(Cl)cc2)nn(-c2cnn(C)c2)c1=O (configuration not stated)
viability, T/C (compound 0.0316 µM): 110% and 92.8% | viability, T/C (compound 0.1 µM): 94.5% and 72.6% | viability, T/C (compound 0.316 µM): 91.5% and 92.9% | viability, T/C (compound 1 µM): 89.1% and 89.9% | viability, T/C (compound 3.16 µM): 106% and 95.8% | viability, T/C (compound 10 µM): 78.1% and 85.5% | IC50: > 10000 nM

CC(Nc1ccc2c(c1)OCCn1cc(N3C(=O)OCC3C(F)F)nc1-2)C(N)=O (configuration not stated)
viability, T/C (compound 0.0316 µM): 77.3% and 57.6% | viability, T/C (compound 0.1 µM): 36% and 29.8% | viability, T/C (compound 0.316 µM): 16.3% and 11.6% | viability, T/C (compound 1 µM): 8.54% and 7.09% | viability, T/C (compound 3.16 µM): 6.58% and 6.55% | viability, T/C (compound 10 µM): 4.15% and 4.2% | IC50: 67.6 nM and 43.3 nM

CC1(C)CCC(CN2CCN(c3ccc(C(=O)NS(=O)(=O)c4ccc(NCC5CCOCC5)c([N+](=O)[O-])c4)c(Oc4cnc5[nH]ccc5c4)c3)CC2)=C(c2ccc(Cl)cc2)C1
viability, T/C (compound 0.0316 µM): 121% and 110% | viability, T/C (compound 0.1 µM): 89.1% and 75.1% | viability, T/C (compound 0.316 µM): 99.5% and 103% | viability, T/C (compound 1 µM): 89.8% and 80.3% | viability, T/C (compound 3.16 µM): 101% and 86.2% | viability, T/C (compound 10 µM): 10.7% and 79.9% | IC50: 6030 nM and > 10000 nM

CC1COCCN1c1cc(C2(S(C)(=N)=O)CC2)nc(-c2ccnc3[nH]ccc23)n1 (configuration not stated)
viability, T/C (compound 0.0316 µM): 102% and 109% | viability, T/C (compound 0.1 µM): 94.1% and 75.7% | viability, T/C (compound 0.316 µM): 87.9% and 82.8% | viability, T/C (compound 1 µM): 89.5% and 69.8% | viability, T/C (compound 3.16 µM): 35.7% and 35% | viability, T/C (compound 10 µM): 21.4% and 20.1% | IC50: 2330 nM and 1890 nM

CCCS(=O)(=O)Nc1ccc(F)c(C(=O)c2c[nH]c3ncc(-c4ccc(Cl)cc4)cc23)c1F
viability, T/C (compound 0.0316 µM): 111% and 94.5% | viability, T/C (compound 0.1 µM): 110% and 95% | viability, T/C (compound 0.316 µM): 109% and 117% | viability, T/C (compound 1 µM): 138% and 127% | viability, T/C (compound 3.16 µM): 144% and 134% | viability, T/C (compound 10 µM): 59.8% and 57% | IC50: > 10000 nM

Reference: PubChem BioAssay AID2060624 (Molecular Pharmacology Branch, DTP, NCI, 2025)
